Laboratory results: patent publication US7368470B2, “Substituted 3-pyrrolidine-indole derivatives” (Gruenenthal GmbH, priority 2003, dated 2008)

Columns and labels:
[1] = test system: binding site 2 of the sodium channel (batrachotoxin (BTX) binding site); assay: Binding test on the sodium channel, binding site 2 (BTX bond), [3H]-batrachotoxinin A20 α-benzoate as ligand; set-up: species or system rat; conditions: 10 μM; rat cerebrocortex synaptosomes; ligand 10 nM; 25° C., 120 min
[2] = biological target: T1, noradrenalin reuptake (NA uptake) (Rattus norvegicus, UniProt Q9WTR4); assay: Noradrenalin reuptake inhibition (NA uptake inhibition) in rat brain synaptosomes; format: biochemical; conditions: synaptosomes from male rats' brains
T1 construct: These vesicular particles were isolated from the hypothalamus of male rats' brains for NA uptake; from tissue; host or cells: rat brain synaptosomes (P2 fraction; cerebral cortex / hypothalamus of male rats)
T1 sequence (Q9WTR4 1-597): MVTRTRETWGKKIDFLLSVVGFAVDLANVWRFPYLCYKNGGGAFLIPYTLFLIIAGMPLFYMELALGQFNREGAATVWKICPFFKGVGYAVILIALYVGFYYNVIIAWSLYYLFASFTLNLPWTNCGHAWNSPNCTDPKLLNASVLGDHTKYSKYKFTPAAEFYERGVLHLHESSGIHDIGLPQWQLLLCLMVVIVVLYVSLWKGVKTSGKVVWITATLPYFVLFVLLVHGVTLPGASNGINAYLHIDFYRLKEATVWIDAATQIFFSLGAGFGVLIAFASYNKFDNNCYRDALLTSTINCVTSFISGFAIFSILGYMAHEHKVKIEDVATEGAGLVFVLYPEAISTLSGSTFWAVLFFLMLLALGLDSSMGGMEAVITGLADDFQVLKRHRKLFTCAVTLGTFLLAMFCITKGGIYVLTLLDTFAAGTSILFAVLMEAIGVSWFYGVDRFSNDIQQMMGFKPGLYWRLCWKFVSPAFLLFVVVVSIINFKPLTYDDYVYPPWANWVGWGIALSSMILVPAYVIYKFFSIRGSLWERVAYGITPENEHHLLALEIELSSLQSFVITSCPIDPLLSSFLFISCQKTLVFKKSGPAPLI
Excerpt: b) Tests on Noradrenalin Reuptake Inhibition
In order to be able to carry out these in vitro studies, synaptosomes from rats' cerebral cortices were freshly isolated. A “P2” fraction, prepared according to Gray and Whittaker's instructions (E. G. Gray and V. P. Whittaker (1962) J. Anat. 76, 79-88) was used in each case. These vesicular particles were isolated from the hypothalamus of male rats' brains for NA uptake.
A detailed description of the method may be found in the literature (M. Ch. Frink, H.-H. Hennies, W. Englberger, M. Haurand and B. Wilffert (1996) Arzneim.-Frosch./Drug Res. 46 (III), 11, 1029-1036).

[3] = biological target: T2, serotonin reuptake (5HT uptake) (Rattus norvegicus, UniProt P31652); assay: Serotonin reuptake inhibition (5HT uptake inhibition) in rat brain synaptosomes; format: biochemical; conditions: synaptosomes from male rats' brains
T2 construct: These vesicular particles were isolated from the hypothalamus of male rats' brains for 5HT uptake; from tissue; host or cells: rat brain synaptosomes (P2 fraction; cerebral cortex / hypothalamus of male rats)
T2 sequence (P31652 whole entry): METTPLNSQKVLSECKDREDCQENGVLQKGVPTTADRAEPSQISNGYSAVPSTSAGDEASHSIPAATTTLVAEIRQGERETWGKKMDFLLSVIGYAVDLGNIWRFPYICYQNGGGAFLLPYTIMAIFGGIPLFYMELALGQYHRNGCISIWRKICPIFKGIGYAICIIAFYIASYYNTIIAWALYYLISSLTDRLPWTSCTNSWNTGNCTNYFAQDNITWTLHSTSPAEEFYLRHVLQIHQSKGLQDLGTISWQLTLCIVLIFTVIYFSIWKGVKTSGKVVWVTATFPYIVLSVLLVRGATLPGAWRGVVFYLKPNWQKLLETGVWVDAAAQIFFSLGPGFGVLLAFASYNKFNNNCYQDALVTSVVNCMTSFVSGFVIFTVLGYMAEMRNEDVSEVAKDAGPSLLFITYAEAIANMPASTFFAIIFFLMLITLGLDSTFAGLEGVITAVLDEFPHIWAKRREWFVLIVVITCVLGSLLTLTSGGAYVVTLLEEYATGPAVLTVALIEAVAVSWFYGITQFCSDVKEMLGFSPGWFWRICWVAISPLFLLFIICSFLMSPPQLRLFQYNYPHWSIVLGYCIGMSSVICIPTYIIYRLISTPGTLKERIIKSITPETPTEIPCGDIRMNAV
Excerpt: a) Tests on Serotonin Reuptake Inhibition
In order to be able to carry out these in vitro studies, synaptosomes from rats' cerebral cortices were freshly isolated. A “P2” fraction prepared according to Gray and Whittaker's instructions (E. G. Gray and V. P. Whittaker (1962) J. Anat. 76, 79-88) was used in each case. These vesicular particles were isolated from the hypothalamus of male rats' brains for 5HT uptake.
A detailed description of the method may be found in the literature (M. Ch. Frink, H.-H. Hennies, W. Englberger, M. Haurand and B. Wilffert (1996) Arzneim.-Forsch./Drug Res. 46 (III), 11, 1029-1036).

Row | SMILES | BTX bond, % inhibition [10 μM] [1] [%] | inhibition at 10 µM [2] [%] | inhibition at 10 µM [3] [%] | NA-uptake, inhibition [10 μM] [2] | 5HT uptake, % inhibition [10 μM] [3] [%]
1 | COc1cccc(Cn2cc(C3CCN(C(=O)Cc4ccc(Cl)cc4)C3)c3ccccc32)c1 (stereo not drawn) [Compound 46, 2-(4-chloro-phenyl)-1-{3-[1-(3-methoxy-benzyl)-1H-indol-3-yl]-pyrrolidin-1-yl}-ethanone] | 88 | 20 | 46 |  | 
2 | O=C(c1ccc([N+](=O)[O-])cc1Cl)N1CCC(c2cn(Cc3ccc(C(F)(F)F)cc3)c3ccccc23)C1 (stereo not drawn) [Compound 39] | 90 |  |  | 41 | 43
3 | Cc1nc(C(F)(F)F)ccc1C(=O)N1CCC(c2cn(Cc3cccc(F)c3)c3ccccc23)C1 (stereo not drawn) [Compound 42, {3-[1-(3-fluoro-benzyl)-1H-indol-3-yl]-pyrrolidin-1-yl}-(2-methyl-6-trifluoromethyl-pyridin-3-yl)-methanone] | 96 | 58 | 82 |  | 
